# Experimental data reported in US5525595A, “3- or 4-glycosyloxybenzopyran derivative and antiallergic agent containing the derivative as active ingredient” (priority 1993, dated 1996).
# Key:
# [1] = system: homologous passive cutaneous anaphylaxis (PCA) reaction; experiment: Effect on homologous passive cutaneous anaphylaxis (PCA) reaction in rats; assay type: in vivo, rats (Male wistar rats); details: Rattus norvegicus, 0.5 h; 100 mg/kg oral, 1 hour before antigen, rats; Table 3
# Outline: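 Male Wistar rats (9 weeks) sensitized intradermally with anti-TNP-ascaris serum; 48 h later compounds dosed orally at 100 mg/kg in 0.5% CMCNa, n=5 per group. Challenge 1 h post-dose with i.v. TNP-As plus Evans Blue; blue-spot diameter measured at 30 min, inhibition calculated versus vehicle group.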
# [2] = system: contact dermatitis induced by picryl chloride; experiment: Effect on contact dermatitis induced by picryl chloride in mice (delayed type hypersensitization); assay type: in vivo; details: Mus musculus; 100 mg/kg oral, ear thickness 24 hours after challenge; Table 6; read-out: Inhibition (%) against the increase of ear thickness
# Outline: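 Mice sensitized on abdomen with 7 mg picryl chloride, ear-challenged 7 days later with 1% picryl chloride; compounds dosed orally at 100 mg/kg in 0.5% CMCNa 1 h before and 16 h after challenge.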
# [3] = system: airway resistance in experimental asthma model; experiment: Effect on experimental asthma model in guinea pigs; assay type: in vivo, guinea pigs (Male hadley); details: Cavia porcellus, Table 7; for inhibition in vivo at 100 mg/kg: 100 mg/kg oral, OVA challenge, guinea pigs
# Outline: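 Male Hartley guinea pigs sensitized i.p. with 5 mg ovalbumin three times weekly, challenged 2 weeks later by 1 min inhalation of 1% OVA. Compounds dosed orally at 100 mg/kg in 0.5% CMCNa; airway resistance recorded 30 min, inhibition % from maximum resistance versus vehicle (n=5).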
# [4] = background statement; cited from earlier work
Compound,inhibition in vivo at 100 mg/kg [1],inhibition in vivo at 100 mg/kg [2],inhibition in vivo at 100 mg/kg [3],"inhibition in vivo at 20 mg/kg ([3]; iv, positive control DSCG 20 mg/kg injected into the vein)",gastrointestinal absorbability [4]
CCCCCCOc1ccc2c(O)c(O[C@@H]3O[C@H](CO)[C@@H](O)[C@H](O)[C@H]3O)c(=O)oc2c1 [compound 43],63.2%,63.4%,76.3%,,
O=c1oc2cc(OCc3ccccc3)ccc2c(O[C@H]2O[C@H](CO)[C@@H](O)[C@H](O)[C@@H]2O)c1O [compound 90],45.3%,38.4%,40.5%,,
"COc1ccc2c(O[C@@H]3O[C@H](CO)[C@@H](O)[C@H](O)[C@H]3O)c(OC(C)=O)c(=O)oc2c1 [compound 65, 7-methoxy-3-acetoxy-4-(β-D-glucopyranosyloxy)-2H-1-benzopyran-2-one]",45.6%,46.3%,46.9%,,
CCCCCCCCCCCCOc1ccc2c(O[C@@H]3O[C@H](CO)[C@@H](O)[C@H](O)[C@H]3O)c(OC(C)=O)c(=O)oc2c1 [compound 75],43.3%,46.2%,45.2%,,
COc1ccc2c(O[C@@H]3O[C@H](CO)[C@H](O)[C@H](O)[C@H]3O)c(OC(=O)c3ccccc3)c(=O)oc2c1 [compound 101],45.2%,47.2%,56.2%,,
"CC(=O)Oc1ccc2c(O)c(O[C@@H]3O[C@H](CO)[C@@H](O)[C@H](O)[C@H]3O)c(=O)oc2c1 [compound 13, 7-acetoxy-4-hydroxy-3-(β-D-glucopyranosyloxy)-2H-1-benzopyran-2-one]",58.7%,50.4%,57.7%,,
CC(C)Oc1ccc2c(O[C@@H]3O[C@H](CO)[C@@H](O)[C@H](O)[C@H]3O)c(O)c(=O)oc2c1 [compound 69],57.2%,56.4%,68.3%,,
CCCCCCOc1ccc2c(O)c(O[C@H]3O[C@H](CO)[C@@H](O)[C@H](O)[C@@H]3O)c(=O)oc2c1 [compound 44],53.5%,58.2%,71.2%,,
CC(C)Oc1ccc2c(O[C@@H]3O[C@H](CO)[C@H](O)[C@H](O)[C@H]3O)c(O)c(=O)oc2c1 [compound 97],55.7%,58.7%,63.2%,,
O=c1oc2cc(O)ccc2c(O)c1O[C@H]1O[C@H](CO)[C@@H](O)[C@H](O)[C@@H]1O [compound 23],47.8%,45%,46.6%,,
CC(=O)Oc1ccc2c(O)c(O[C@H]3O[C@H](CO)[C@@H](O)[C@H](O)[C@@H]3O)c(=O)oc2c1 [compound 45],46.3%,46.3%,46.5%,,
"COc1ccc2c(O)c(O[C@@H]3O[C@H](COC(C)=O)[C@H](OC(C)=O)[C@H](OC(C)=O)[C@H]3OC(C)=O)c(=O)oc2c1 [compound 9, 7-methoxy-4-hydroxy-3-(tetra-O-acetyl-β-D-galactopyranosyloxy)-2H-1-benzopyran-2-one]",51.3%,50.1%,58.4%,,
CCC=CCCOc1ccc2c(O)c(O[C@@H]3O[C@H](CO)[C@H](O)[C@H](O)[C@H]3O)c(=O)oc2c1 [compound 37],59.5%,58.3%,72.4%,,
CCCCCCCCCCOc1ccc2c(O[C@H]3O[C@H](CO)[C@@H](O)[C@H](O)[C@@H]3O)c(O)c(=O)oc2c1 [compound 81],48.3%,50.8%,63.1%,,
O=C(Oc1ccc2c(O)c(O[C@@H]3O[C@H](CO)[C@H](O)[C@H](O)[C@H]3O)c(=O)oc2c1)c1ccccc1 [compound 39],58.3%,54.3%,64.1%,,
"O=C(O)c1cc(=O)c2c(OCC(O)COc3cccc4oc(C(=O)O)cc(=O)c34)cccc2o1 [DSCG, reference compound]",,,,50.5%,extremely poor
COc1ccc2c(O[C@@H]3O[C@H](CO)[C@@H](O)[C@H](O)[C@H]3O)c(OC(=O)c3ccccc3)c(=O)oc2c1 [compound 73],45.8%,45.8%,44.7%,,
CCCCCCCCCCCCOc1ccc2c(O)c(O[C@@H]3O[C@H](CO)[C@@H](O)[C@H](O)[C@H]3O)c(=O)oc2c1 [compound 17],59.2%,59.2%,75%,,
O=C(Oc1ccc2c(O[C@@H]3O[C@H](CO)[C@H](O)[C@H](O)[C@H]3O)c(O)c(=O)oc2c1)c1ccccc1 [compound 100],42.6%,44.9%,67.8%,,
O=c1oc2cc(OCc3ccccc3)ccc2c(O[C@@H]2O[C@H](CO)[C@@H](O)[C@H](O)[C@H]2O)c1O [compound 76],47.7%,46.8%,47.5%,,
CC(C)=CCC/C(C)=C/COc1ccc2c(O[C@@H]3O[C@H](CO)[C@H](O)[C@H](O)[C@H]3O)c(O)c(=O)oc2c1 [compound 99],58.6%,59.4%,77.7%,,
CCCCCCCCCCCCOc1ccc2c(O[C@H]3O[C@H](CO)[C@@H](O)[C@H](O)[C@@H]3O)c(O)c(=O)oc2c1 [compound 82],47.3%,48.7%,55.1%,,
CCC=CCCOc1ccc2c(O[C@H]3O[C@H](CO)[C@@H](O)[C@H](O)[C@@H]3O)c(O)c(=O)oc2c1 [compound 84],45.5%,46.3%,47.1%,,
CCCCCCCCCCCCOc1ccc2c(O[C@@H]3O[C@H](CO)[C@@H](O)[C@H](O)[C@H]3O)c(O)c(=O)oc2c1 [compound 68],59.9%,56.6%,65.3%,,
O=c1oc2cc(O)ccc2c(O)c1O[C@@H]1O[C@H](CO)[C@H](O)[C@H](O)[C@H]1O [compound 32],43.2%,48.1%,54.8%,,
CCCCCCCCCCCCOc1ccc2c(O)c(O[C@@H]3O[C@H](CO)[C@H](O)[C@H](O)[C@H]3O)c(=O)oc2c1 [compound 35],60.1%,61.1%,75.2%,,
CCCCCCOc1ccc2c(O[C@@H]3O[C@H](CO)[C@@H](O)[C@H](O)[C@H]3O)c(O)c(=O)oc2c1 [compound 121],63.7%,63.7%,75.1%,,
O=C(Oc1ccc2c(O[C@@H]3O[C@H](CO)[C@@H](O)[C@H](O)[C@H]3O)c(O)c(=O)oc2c1)c1ccccc1 [compound 72],46.9%,47.8%,49.5%,,
CC(C)=CCC/C(C)=C/COc1ccc2c(O[C@H]3O[C@H](CO)[C@@H](O)[C@H](O)[C@@H]3O)c(O)c(=O)oc2c1 [compound 85],47.6%,47.2%,48.5%,,
COc1ccc2c(O[C@H]3O[C@H](CO)[C@@H](O)[C@H](O)[C@@H]3O)c(OC(=O)c3ccccc3)c(=O)oc2c1 [compound 87],44.7%,42.4%,42.5%,,
